The text below walks through data of PubChem BioAssay (NCI).

Test systems include EKVX NSCLC; SNB-75 CNS; SK-MEL-5 melanoma; XF 498 CNS; LOX IMVI melanoma; HL-60(TB) leukemia; SK-MEL-2 melanoma; HOP-62 NSCLC; A549 NSCLC; UO-31 renal.
Common to all, as to assay: DTP human tumour cell line panel, 48 h

“And” between values parts separate entries of the source, which are not always exact repeats. Equal entries are not always repeated.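 1) Cells in 96-well plates. 2) Compound, 48 h, 5 concentrations. 3) Linear interpolation between surrounding doses. 4) Unreached endpoint = highest concentration. GI50 marks 50% less growth. At the TGI there is no net growth.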

As a reminder, the TGI is the concentration at which net growth stops. As to `CCCCCCCCCCCCCCCCCCCCCC(=O)Nc1ccn(C2OC(CO)C(O)C2O)c(=O)n1` (stereo not given), the TGI in the assay on EKVX NSCLC, in the assay with SNB-75 CNS, in the assay with SK-MEL-5 melanoma, in the assay on XF 498 CNS, in the assay with LOX IMVI melanoma and in the assay on HL-60(TB) leukemia was over 100 µM each time. In addition, the TGI in the assay on SK-MEL-2 melanoma is over 100 µM; with HOP-62 NSCLC, over 57.6 µM; with A549 NSCLC it was over 100 µM; with UO-31 renal, over 100 µM.

Take `CN(C)CCCN1CCc2c([nH]c3ccccc23)C1c1cccnc1` (stereo not given): the total growth inhibition concentration (TGI) in the assay on EKVX NSCLC, in the assay with SNB-75 CNS, in the assay with SK-MEL-5 melanoma, in the assay with XF 498 CNS, with LOX IMVI melanoma and with HL-60(TB) leukemia was over 100 µM in each case. The TGI in the assay on SK-MEL-2 melanoma, with HOP-62 NSCLC, in the assay with A549 NSCLC and in the assay with UO-31 renal was over 100 µM throughout.

In general, GI50 refers to the concentration giving 50% growth inhibition. Turning to `CC1C(=O)C(C)C(c2ccccc2)N(N=O)C1c1ccccc1` (stereo not given), the GI50 with EKVX NSCLC is over 1000 µM; with SNB-75 CNS it was 27.2 µM; with XF 498 CNS, 53.2 µM; in the assay with HOP-62 NSCLC it was 111 µM; in the assay on UO-31 renal, 268 µM. Also, the total growth inhibition concentration (TGI) in the assay with EKVX NSCLC was over 1000 µM; in the assay on SNB-75 CNS it was 64.7 µM and 80.6 µM; in the assay with SK-MEL-5 melanoma it was over 605 µM; in the assay with XF 498 CNS, 73.8 µM and 214 µM; in the assay on LOX IMVI melanoma, over 783 µM; in the assay with HL-60(TB) leukemia it was over 1000 µM. Further, the TGI with SK-MEL-2 melanoma was 623 µM; in the assay on HOP-62 NSCLC, > 78.3 µM and 360 µM; with A549 NSCLC, over 1000 µM; with UO-31 renal it was over 829 µM.

In the case of `O=C(CSC(=S)N1CCOCC1)Nc1nc2c(s1)CCCC2`, the TGI in the assay on EKVX NSCLC, in the assay on SNB-75 CNS, in the assay on SK-MEL-5 melanoma, in the assay with XF 498 CNS, in the assay on LOX IMVI melanoma and in the assay on HL-60(TB) leukemia was over 100 µM each time. Also, the TGI in the assay on SK-MEL-2 melanoma, in the assay with HOP-62 NSCLC, in the assay on A549 NSCLC and in the assay with UO-31 renal was over 100 µM throughout.

On to `CC(C)C1CC(O)O[C@@H]([C@@H](C)[C@H]2CC(=O)[C@@H]3[C@@H]4[C@@H](O)[C@H](O)[C@H]5[C@@H](O)[C@H](O)CC[C@]5(C)[C@H]4CC[C@]23C)C1` (stereo not given in full), for which the TGI in the assay on EKVX NSCLC is over 100 µM; in the assay on SNB-75 CNS it was 54.3 µM; in the assay with SK-MEL-5 melanoma it was over 100 µM; with XF 498 CNS, 56 µM; in the assay on LOX IMVI melanoma, over 100 µM; in the assay on HL-60(TB) leukemia, over 100 µM. Besides, the concentration for total growth inhibition (TGI) in the assay on SK-MEL-2 melanoma is over 100 µM; in the assay with HOP-62 NSCLC, 61.4 µM; in the assay with A549 NSCLC, over 100 µM; in the assay on UO-31 renal, over 100 µM.

For the compound `CC/C=C\C/C=C\C/C=C\CCCCCCCC(=O)OCC`, the TGI in the assay with EKVX NSCLC, in the assay on SNB-75 CNS, in the assay on SK-MEL-5 melanoma, in the assay on XF 498 CNS, with LOX IMVI melanoma and in the assay on HL-60(TB) leukemia was over 100 µM in each case. In addition, the total growth inhibition concentration (TGI) in the assay on SK-MEL-2 melanoma, with HOP-62 NSCLC, with A549 NSCLC and with UO-31 renal was over 100 µM in each case.

As to `CC1=C(O)C(=O)C2C(=O)C1C(C)C2c1ccc(Cl)cc1` (stereo not given), the concentration for total growth inhibition (TGI) in the assay on EKVX NSCLC, in the assay on SNB-75 CNS, in the assay with SK-MEL-5 melanoma, with XF 498 CNS, in the assay with LOX IMVI melanoma and in the assay with HL-60(TB) leukemia was over 100 µM in each case. Further, the TGI in the assay on SK-MEL-2 melanoma, in the assay with HOP-62 NSCLC, in the assay with A549 NSCLC and in the assay on UO-31 renal was over 100 µM each time.

For `CCOc1ccc(NCc2cc(OC)c(OC)c(OC)c2)cc1`, the total growth inhibition concentration (TGI) was over 100 µM with EKVX NSCLC; over 100 µM with SNB-75 CNS; 52.9 µM and > 60.6 µM in the assay with SK-MEL-5 melanoma; > 95.6 µM and 62 µM in the assay on XF 498 CNS; over 84 µM in the assay on LOX IMVI melanoma; 19.2 µM and 33.8 µM in the assay with HL-60(TB) leukemia. The total growth inhibition concentration (TGI) with SK-MEL-2 melanoma is over 100 µM; in the assay on HOP-62 NSCLC it was > 36.6 µM and 24.7 µM; in the assay on A549 NSCLC, over 100 µM; in the assay with UO-31 renal, over 100 µM. Moreover, the GI50 in the assay with XF 498 CNS was 9.37 µM and 3 µM; with SK-MEL-2 melanoma, 2.22 µM and 0.429 µM.

As to `CCCCCCCCCCCCCCCC(=O)OCC1OC(n2c(O)c(N=NC(N)=S)c3ccc([N+](=O)[O-])cc32)C(OC(C)=O)C1OC(C)=O` (stereo not given), the TGI in the assay on EKVX NSCLC, in the assay with SNB-75 CNS, with SK-MEL-5 melanoma, in the assay on XF 498 CNS, in the assay on LOX IMVI melanoma and with HL-60(TB) leukemia was over 100 µM throughout. Moreover, the TGI with SK-MEL-2 melanoma, in the assay with HOP-62 NSCLC and in the assay with A549 NSCLC was over 100 µM each time.

For the compound `CC(=O)Oc1ccc(O)c(O)c1C/C=C(\C)CC/C=C(\C)CC/C=C(\C)CCC=C(C)C`, the TGI turned out to be 3.81 µM with EKVX NSCLC; 1.92 µM with SNB-75 CNS; 0.818 µM with XF 498 CNS; 0.694 µM in the assay with LOX IMVI melanoma; 4.11 µM in the assay on HL-60(TB) leukemia; 2.9 µM in the assay with SK-MEL-2 melanoma. The values for the concentration for total growth inhibition (TGI) in the assay on HOP-62 NSCLC, with A549 NSCLC and in the assay on UO-31 renal were 2.81 µM, 1.55 µM and 2.74 µM, respectively.
